Experiments:
Assay type in all cases: cell-based
[1] = molecular target: T1, CB1 receptor (Mus musculus, UniProt P47746); experiment: PathHunter β-arrestin CHO-K1 agonist assay (EC80)
T1 construct: gene Cnr1

[2] = molecular target: T2, cannabinoid receptor type 1 (CB1) (Homo sapiens, UniProt P21554); experiment: cAMP Hunter CHO-K1 CNR1 Gi antagonist assay vs […] CP55940
T2 construct: gene CNR1

[3] = molecular target: T1, CB1 receptor; experiment: PathHunter β-arrestin CHO-K1 antagonist assay vs CP55940
[4] = molecular target: T2, cannabinoid receptor type 1 (CB1); experiment: cAMP Hunter CHO-K1 CNR1 Gi agonist assay (inhibition of forskolin-stimulated cAMP)

T1 sequence (P47746 whole entry): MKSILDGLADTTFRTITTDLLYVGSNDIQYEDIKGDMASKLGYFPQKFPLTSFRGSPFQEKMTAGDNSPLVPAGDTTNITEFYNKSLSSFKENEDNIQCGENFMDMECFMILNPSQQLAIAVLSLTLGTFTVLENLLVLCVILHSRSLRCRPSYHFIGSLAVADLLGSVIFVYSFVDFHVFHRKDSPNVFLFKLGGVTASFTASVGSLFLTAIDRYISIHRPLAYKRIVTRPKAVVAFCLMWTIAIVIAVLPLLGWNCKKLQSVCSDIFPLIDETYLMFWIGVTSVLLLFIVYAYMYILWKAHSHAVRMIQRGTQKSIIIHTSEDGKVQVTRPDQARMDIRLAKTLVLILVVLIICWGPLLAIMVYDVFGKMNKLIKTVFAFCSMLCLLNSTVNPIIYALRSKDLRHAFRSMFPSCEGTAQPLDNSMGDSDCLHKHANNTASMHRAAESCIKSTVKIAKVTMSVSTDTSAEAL
T2 sequence (P21554 whole entry): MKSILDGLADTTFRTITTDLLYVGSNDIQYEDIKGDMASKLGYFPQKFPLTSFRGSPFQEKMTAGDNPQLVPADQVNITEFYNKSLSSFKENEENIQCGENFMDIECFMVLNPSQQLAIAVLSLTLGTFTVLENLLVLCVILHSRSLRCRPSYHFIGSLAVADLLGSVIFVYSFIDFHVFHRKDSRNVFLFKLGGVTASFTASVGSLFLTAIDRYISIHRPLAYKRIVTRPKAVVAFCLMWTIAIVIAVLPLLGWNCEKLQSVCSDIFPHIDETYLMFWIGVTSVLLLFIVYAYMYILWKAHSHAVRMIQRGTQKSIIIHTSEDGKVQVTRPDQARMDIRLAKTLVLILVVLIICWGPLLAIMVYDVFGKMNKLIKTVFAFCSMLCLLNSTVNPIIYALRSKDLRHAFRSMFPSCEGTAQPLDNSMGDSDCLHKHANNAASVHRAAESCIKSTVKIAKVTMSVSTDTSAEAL

Question: For `CCCCCCC(C)(C)c1ccc([C@@H]2C[C@H](O)CC[C@H]2CCCO)c(O)c1` (racemic) [CP55940], which EC80 [1] is on record?
Answer: Its EC80 is 11.5 nM.

Question: For `Cc1c(C(=O)NN2CCCCC2)nn(-c2ccc(Cl)cc2Cl)c1-c1ccc(I)cc1` [AM251], which “cAMP Hunter CHO-K1 CNR1 Gi antagonist assay vs 1.2 nM CP55940” value [2] is on record?
Answer: Its value is “the antagonist/inverse agonist of CB1, AM251, completely diminished the agonist signal of CP55940”.

Question: Which IC50 [3] does the source give for `Cc1c(C(=O)NN2CCOCC2)nn(-c2ccc(Cl)cc2Cl)c1-c1ccc(I)cc1` [AM281] here?
Answer: The IC50 was 40 nM.

Question: Which EC50 [4] does the source give for `C=C(C)[C@@H]1CC[C@](C)(O)[C@H]2Oc3cc(CCCCC)cc(O)c3[C@@H]12` [S-CBE] here?
Answer: Its EC50 is 3720 nM.

Reference: paper PMC11275175, “Cannabielsoin (CBE), a CBD Oxidation Product, Is a Biased CB1 Agonist” (Biomedicines, 2024)
